The source of these data is patent publication US20190167819A1, “CONTRAST AGENTS” (BRACCO IMAGING S.P.A., priority 2016, published 2019).

This series in a line: Relaxometric properties: longitudinal relaxivity r1p in human plasma. Type of series: physicochemical. To be noted: 37° C. As to the method:
The relaxometric properties of some representative complex compounds according to the invention have been determined at different magnetic field strengths, e.g. including 0.47 and 1.41 T, at 37° C. and in different media (physiologic solution and human plasma) and compared with relaxivity values measured, at the same conditions, for some Gd-Complex of the market having an analogous cyclic coordination cage.
The longitudinal water proton relaxation rate (R1=1/T1) was measured at 0.47 T with a Minispec MQ-20 spectrometer (Bruker Biospin, Germany) operating at a proton Larmor frequency of 20 MHz; MR experiments at 1.41 T were performed using a Minispec MQ-60 spectrometer (Bruker Biospin, Germany) operating at a proton Larmor frequency of 60 MHz.
All test articles were used as supplied and diluted in the selected medium (physiologic solution or human plasma) by weighting the required amount of paramagnetic chelated complex to get a 5 or 10 mM starting solution.
Five different concentration samples (0.1, 0.25, 0.5, 0.75 and 1 mM) for each medium have been prepared by further dilution of the starting 5 or 10 mM solution.
Relaxivity measurements were performed at 0.47 T and 1.41 T at a preset temperature sample of 37° C., kept constant by means of a thermostatic bath connected to the sample holder of the spectrometer. The five sample solutions have been preliminary pre-heated at 37° C. in an external thermostatic bath and then left 10 minutes inside the internal bath to assure the stabilization of the temperature. Longitudinal relaxation time T1 was measured by means of a standard inversion recovery sequence, where the inversion time (TI) was varied from 10 ms to at least 5 times T1 in 15 steps. Statistical analysis (mono-exponential fitting for T1 measurement, linear fitting for the evaluation of longitudinal relaxivity) was performed by Mathematica® (Wolfram, USA). Errors on the estimated parameters were evaluated by the fitting procedure.

With `O=C(O)CN1CCN(CC(=O)O)CCN(CC(=O)O)CCN(CC(=O)O)CC1`, the “r1p in human plasma” value runs as follows: (0.47 T) 4.5 mM⁻¹ s⁻¹; (1.41 T) 3.6 mM⁻¹ s⁻¹.
The corresponding values for `O=C(O)CN1CCN(CC(O)COCC(COCC(O)CN2CCN(CC(=O)O)CCN(CP(=O)(O)O)CCN(CC(=O)O)CC2)OCc2ccccc2)CCN(CC(=O)O)CCN(CP(=O)(O)O)CC1` (stereo not drawn) are 7.41 mM⁻¹ s⁻¹ and 6.8 mM⁻¹ s⁻¹.
For `CC(O)CN1CCN(CC(=O)O)CCN(CC(=O)O)CCN(CC(=O)O)CC1` (stereo not drawn) (Gd complex, metal not drawn), the “r1p in human plasma” value by setting is: (0.47 T) 4.9 mM⁻¹ s⁻¹; (1.41 T) 4.15 mM⁻¹ s⁻¹.
